Tests used:
[1] = system: WM266.4 melanoma cells; assay: SRB Cell Proliferation Assay (SRB GI50); type: cell-based; conditions: Homo sapiens, WM 266-4, 144 h, 6 days growth
Procedure: Biological Methods —SRB Cell Proliferation Assay (SRB GI50)
Cultures of WM266.4 melanoma cells are routinely cultured in DMEM/10% foetal bovine serum, at 37° C., in 5% CO2 water saturated atmosphere. Cultures are maintained in exponential growth phase by sub-culturing before having become confluent (3-5 day intervals). Single cell suspensions are prepared by harvesting an 80 cm^2 tissue culture flask with 5 mL commercial trypsin EDTA. After 5 minutes, the detached cells are mixed with 5 mL fully complemented culture medium and centrifugally pelleted (1000 rpm for 7 minutes). After aspirating the supernatant, the cell pellet is re-suspended in 10 mL fresh medium and the cells fully disaggregated by drawing the whole volume up/down 5 times through a 19-gauge needle. The concentration of the cells is determined using a haemocytometer (1/10 dilution). A suitable volume to give at least a 2-fold excess for the number of tests being conducted, typically 100-200 mL, is prepared by diluting the cell suspension to 10,000/mL, and 100 μL/well dispensed into 96 well plates using a programmable 8-channel peristaltic pump, giving 1000 cells/well, leaving column 12 blank. The plates are returned to the incubator for 24 hours to allow the cells to re-attach.
The compounds being tested are prepared at 20 mM in dimethylsulphoxide. Aliquots (200 μL) are diluted into 20 mL culture medium giving 200 μM, and 10 serial dilutions of 3× performed by transferring 5 mL to 10 mL. Aliquots (100 μL) of each dilution are added to the wells, using an 8-channel pipettor, thus performing a final further 2× dilution, and giving doses ranging from 100 μM to 0.005 μM. Column 11 receives plain culture medium only. Each compound is tested in quadruplicate, each replicate being the average of four wells, and two plates per compound.
After a further 6 days growth, the plates are emptied, and the cells are fixed in 10% trichloroacteic acid for 10 minutes on ice. After thorough rinsing in running tap water, the plates are dried, and stained by adding 50 μL of a solution of 0.1% sulphorhodamine-B in 1% acetic acid, for 10 minutes at room temperature. The stain is poured out and the plates thoroughly rinsed under a stream of 1% acetic acid, thus removing unbound stain, and dried. The bound stain is taken into solution by addition of 150 μL Tris buffer pH 8, followed by 10 minutes on a plate-shaker (approximately 500 rpm). The absorbance at 540 nm in each well (being proportional to the number of cells present) is determined using a plate reader.
After averaging the results in rows A-D and E-H, the blank value (row 12) is subtracted, and results expressed as percentage of the untreated value (row 11). […] The GI50 generated by this procedure is the concentration of the drug that produces a percentage control A540 midway between the saturation, and zero-effect plateaus.

[2] = biological target: T1, B-RAF (Homo sapiens, UniProt P15056, V600E); assay: DELFIA Kinase Assay; type: biochemical; conditions: 100 μM ATP, GST-MEK substrate
T1 construct: made in house
T1 sequence (P15056 whole entry V600E): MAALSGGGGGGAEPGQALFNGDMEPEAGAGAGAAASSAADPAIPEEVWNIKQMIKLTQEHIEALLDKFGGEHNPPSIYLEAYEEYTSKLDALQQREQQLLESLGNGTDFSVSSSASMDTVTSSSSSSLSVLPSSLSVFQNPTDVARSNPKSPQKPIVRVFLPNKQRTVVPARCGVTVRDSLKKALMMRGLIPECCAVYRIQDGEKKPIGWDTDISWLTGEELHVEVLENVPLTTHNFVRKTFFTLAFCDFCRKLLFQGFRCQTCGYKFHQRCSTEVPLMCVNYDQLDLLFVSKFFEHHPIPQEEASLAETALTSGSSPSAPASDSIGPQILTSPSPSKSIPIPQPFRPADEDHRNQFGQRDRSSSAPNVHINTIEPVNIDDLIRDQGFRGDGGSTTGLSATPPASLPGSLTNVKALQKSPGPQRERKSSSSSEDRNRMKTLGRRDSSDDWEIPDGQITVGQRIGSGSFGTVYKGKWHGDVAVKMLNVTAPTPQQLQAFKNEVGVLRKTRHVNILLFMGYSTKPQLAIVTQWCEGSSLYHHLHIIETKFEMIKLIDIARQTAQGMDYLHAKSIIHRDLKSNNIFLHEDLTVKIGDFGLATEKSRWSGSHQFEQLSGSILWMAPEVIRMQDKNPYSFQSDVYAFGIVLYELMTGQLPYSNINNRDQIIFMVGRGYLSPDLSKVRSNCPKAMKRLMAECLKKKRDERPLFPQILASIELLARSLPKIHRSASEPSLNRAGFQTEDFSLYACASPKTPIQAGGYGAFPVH
Procedure, shortened: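 Recombinant B-RAF (V600E) with GST-MEK substrate was preincubated with compound for 10 min at room temperature, then reacted with 100 μM ATP for 45 min on milk-preblocked wells, with antibody detection by DELFIA europium fluorescence. Response is taken as % of DMSO control after empty-vector blank subtraction; IC50 is from a variable-slope sigmoidal fit, mean of usually three independent runs.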

[3] = system: pERK; assay: Cell Based Phospho-ERK Assay; conditions: 6 h, 6 hours incubation with test compound
Procedure: Biological Methods—Cell Based Phosho-ERK Assay
Compounds were assessed using a cell-based assay which was performed according to the following protocol.
Plate out 16,000 cells/well in 99 μL medium in a 96-well plate.
• 1. Add 1 μL inhibitor to the cells (total […] solution). • 2. Incubate the cells with test compound for 6 hours at 37° C. • 3. Aspirate off the solution from all of the wells. • 4. Fixate the cells with 100 μL 4% formaldehyde/0.25% Triton X-100 PBS per well. • 5. Incubate the plate for 1 hour at 4° C. • 6. Aspirate off the fixing solution and add 300 μL TBS per well. • 7. Leave the plate overnight at 4° C. Day 2: • 1. Wash the plate 2× with 200 μL PBS per well. • 2. Block with 100 μL 5% dried milk in TBS. • 3. Incubate the plate for 20 minutes at 37° C. • 4. Wash the plate 2× with 0.1% tween/H2O. • 5. Add 50 μL of 3 μg/mL primary antibody pERK (Sigma M8159), diluted in 5% milk powder/TBS, to each well. • 6. Incubate the plate for 2 hours at 37° C. • 7. Wash the plate 3× with 0.1% tween/H2O. • 8. Add 50 μL of 0.45 μg/mL secondary Europium-labelled anti-mouse antibody (Perkin Elmer) to each well. • 9. Incubate the plate for 1 hour at 37° C. • 10. Wash the plate 3× with 0.1% tween/H2O. • 11. Add 100 μL enhancement solution (Perkin Elmer) to each well. • 12. Leave the plate for approximately 10 minutes at room temperature before gently shaking the plate. • 13. Read Europium Time Resolved Fluorescence in Victor2. • 14. Wash the plate 2× with 0.1% tween/H2O. • 15. Measure the protein concentration with BCA (Sigma) by adding 200 μL of solution per well. • 16. Incubate the plate for 30 minutes at 37° C. • 17. Read absorbance levels at 570 nm in a plate reader.
Note that Europium counts are normalised for protein levels by dividing counts by absorbance.
Values for the blank (no cells) are subtracted from all values. The DMSO controls are set as 100% activity and assay points (the response) are calculated as a percentage of the DMSO control. Data are plotted using Graphpad Prism software and a non-linear regression line is calculated using a variable slope sigmoidal dose-response equation (Y=Bottom+(Top−Bottom)/(1+10^((LogEC50−X)*HillSlope)) where X is the logarithm of concentration. Y is the response). The IC50 generated by this procedure is the concentration of the drug that produces a percentage control fluorescence value midway between the saturation, and zero-effect plateaus. Three independent assays are usually performed and the mean IC50 is reported.

| SMILES | GI50 [1] [µM] | IC50 [2] [µM] | IC50 [3] [µM] |
| --- | --- | --- | --- |
| COc1ccc(-n2nc(C(C)(C)C)cc2NC(=O)Nc2ccc(Oc3ccnc4[nH]c(=O)c(C)nc34)cc2SC)cn1 [AA-064, 1-(3-tert-butyl-1-(6-methoxypyridin-3-yl)-1H-pyrazol-5-yl)-3-(4-(2-methyl-3-oxo-3,4-dihydropyrido[2,3-b]pyrazin-8-yloxy)-2-(methylthio)phenyl)urea] | < 1 | < 0.1 | < 1 |
| CSc1cc(Oc2ccnc3ncc(=O)[nH]c23)ccc1NC(=O)Nc1cc(C(C)(C)C)nn1-c1ccccc1 [AA-066, 1-(3-tert-butyl-1-phenyl-1H-pyrazol-5-yl)-3-(2-(methylthio)-4-(2-oxo-1,2-dihydropyrido[2,3-b]pyrazin-8-yloxy)phenyl)urea] | < 1 | 0.1 to 1 | < 1 |
| CSc1cc(Oc2ccnc3[nH]c(=O)cnc23)ccc1NC(=O)Nc1cc(C(C)(C)C)nn1-c1ccccc1 [AA-067, 1-(3-tert-butyl-1-phenyl-1H-pyrazol-5-yl)-3-(2-(methylthio)-4-(3-oxo-3,4-dihydropyrido[2,3-b]pyrazin-8-yloxy)phenyl)urea] | < 1 | < 0.1 | < 1 |
| O=C(Nc1cncc(C(F)(F)F)c1)Nc1ccc(Oc2ccnc3[nH]c(=O)cnc23)cc1F [AA-069, 1-(2-fluoro-4-(3-oxo-3,4-dihydropyrido[2,3-b]pyrazin-8-yloxy)phenyl)-3-(5-(trifluoromethyl)pyridin-3-yl)urea] | 1 to 10 | < 0.1 | 1 to 10 |
| O=C(Nc1ccc(Oc2ccnc3[nH]c(=O)c(=O)[nH]c23)cc1F)Nc1cc(C(F)(F)F)ccc1F [AA-072, 1-(4-(2,3-Dioxo-1,2,3,4-tetrahydropyrido[3,2-b]pyrazin-8-yloxy)-2-fluorophenyl)-3-(2-fluoro-5-(trifluoromethyl)phenyl)urea] | 1 to 10 | < 0.1 | < 1 |
| Cc1ccc(-n2nc(C(C)(C)C)cc2NC(=O)Nc2ccc(Oc3ccnc4[nH]c(=O)c(=O)[nH]c34)cc2F)cc1 [AA-074, 1-(3-Tert-butyl-1-p-tolyl-1H-pyrazol-5-yl)-3-(4-(2,3-dioxo-1,2,3,4-tetrahydropyrido[3,2-b]pyrazin-8-yloxy)-2-fluorophenyl)urea] | < 1 | < 0.1 | < 1 |
| CC(C)(C)c1cc(NC(=O)Nc2cccc(Oc3ccnc4ncc(=O)[nH]c34)c2)n(-c2ccccc2)n1 [AA-076, 1-(3-tert-butyl-1-phenyl-1H-pyrazol-5-yl)-3-(3-(2-oxo-1,2-dihydropyrido[2,3-b]pyrazin-8-yloxy)phenyl)urea] | 1 to 10 | 0.1 to 1 | 1 to 10 |
| Cc1ccc(-n2nc(C(C)(C)C)cc2NC(=O)Nc2ccc(Oc3ccnc4[nH]c(=O)c(N)nc34)c3ccccc23)cc1 [AA-077, 1-(4-(2-amino-3-oxo-3,4-dihydropyrido[2,3-b]pyrazin-8-yloxy)naphthalen-1-yl)-3-(3-tert-butyl-1-p-tolyl-1H-pyrazol-5-yl)urea] | < 1 | 0.1 to 1 | < 1 |
| Nc1nc2nccc(Oc3ccc(NC(=O)Nc4cc(C(F)(F)F)ccc4F)c4ccccc34)c2[nH]c1=O [AA-079, 1-(4-(3-amino-2-oxo-1,2-dihydropyrido[2,3-b]pyrazin-8-yloxy)naphthalen-1-yl)-3-(2-fluoro-5-(trifluoromethyl)phenyl)urea] | < 1 | < 0.1 | < 1 |
| CC(C)(C)c1cc(NC(=O)Nc2ccc(Oc3ccnc4nc(N)c(=O)[nH]c34)c3ccccc23)n(-c2ccccc2)n1 [AA-081, 1-(4-(3-amino-2-oxo-1,2-dihydropyrido[2,3-b]pyrazin-8-yloxy)naphthalen-1-yl)-3-(3-tert-butyl-1-phenyl-1H-pyrazol-5-yl)urea] | < 1 | 0.1 to 1 | < 1 |
| O=C(Nc1cc(C(F)(F)F)ccc1F)Nc1ccc(Oc2ccnc3nc(C(F)(F)F)c(=O)[nH]c23)c2ccccc12 [AA-083, 1-(2-fluoro-5-(trifluoromethyl)phenyl)-3-(4-(2-oxo-3-(trifluoromethyl)-1,2-dihydropyrido[2,3-b]pyrazin-8-yloxy)naphthalen-1-yl)urea] | 1 to 10 | 0.1 to 1 | 1 to 10 |

Second part, the molecule after the results:

| GI50 [1] [µM] | IC50 [2] [µM] | IC50 [3] [µM] | SMILES |
| --- | --- | --- | --- |
| < 1 | < 0.1 | < 1 | CSc1cc(Oc2ccnc3[nH]c(=O)c(C)nc23)ccc1NC(=O)Nc1cc(C(C)(C)C)nn1-c1ccccc1 [AA-065, 1-(3-tert-butyl-1-phenyl-1H-pyrazol-5-yl)-3-(4-(2-methyl-3-oxo-3,4-dihydropyrido[2,3-b]pyrazin-8-yloxy)-2-(methylthio)phenyl)urea] |
| < 1 | 0.1 to 1 | < 1 | CC(C)(C)c1cc(NC(=O)Nc2ccc(Oc3ccnc4nc(N5CCOCC5)cnc34)cc2F)n(-c2ccccc2)n1 [AA-071, 1-(3-Tert-butyl-1-phenyl-1H-pyrazol-5-yl)-3-(2-fluoro-4-(3-morpholinopyrido[3,2-b]pyrazin-8-yloxy)phenyl)urea] |
| < 1 | < 0.1 | < 1 | CC(C)(C)c1cc(NC(=O)Nc2cccc(Oc3ccnc4[nH]c(=O)cnc34)c2)n(-c2ccccc2)n1 [AA-075, 1-(3-tert-butyl-1-phenyl-1H-pyrazol-5-yl)-3-(3-(3-oxo-3,4-dihydropyrido[2,3-b]pyrazin-8-yloxy)phenyl)urea] |
| < 1 | 0.1 to 1 | < 1 | Cc1ccc(-n2nc(C(C)(C)C)cc2NC(=O)Nc2cccc(Oc3ccnc4[nH]c(=O)c(C)nc34)c2)cc1 [AA-078, 1-(3-tert-butyl-1-p-tolyl-1H-pyrazol-5-yl)-3-(3-(2-methyl-3-oxo-3,4-dihydropyrido[2,3-b]pyrazin-8-yloxy)phenyl)urea] |
| < 1 | < 0.1 | < 1 | CC(C)(C)c1cc(NC(=O)Nc2ccc(Oc3ccnc4[nH]c(=O)c(N)nc34)c3ccccc23)n(-c2ccccc2)n1 [AA-080, 1-(4-(2-amino-3-oxo-3,4-dihydropyrido[2,3-b]pyrazin-8-yloxy)naphthalen-1-yl)-3-(3-tert-butyl-1-phenyl-1H-pyrazol-5-yl)urea] |
